Data as given in patent US9200008B2 (ASKA PHARMACEUTICAL CO., LTD., priority 2010, dated 2015).

Tested on: Human prostate cancer cell lines (PC-3 cells)
Assay: Measurement of cell death-inducing activity (Test Example 1)
Assay type: cell-based
Conditions: PC-3, 48 h, 48 hours after addition, tested at 10, 1, 0.1, 0.025 and 0.00625 μmol/L, qualitative evaluation of 10 fields, read-out: Concentration showing the cell death-inducing activity (cell death-inducing rate not less than 40%)
Outline: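 PC-3 cells seeded at 1×10^5 cells/well and grown 48 h at 37 °C, 5% CO2, then exposed to compound at 10, 1, 0.1, 0.025 and 0.00625 μmol/L (DMSO control) for a further 48 h. Activity was called where cell death-inducing rate was not less than 40%.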

## CCn1cc2ccc(COC(=O)Nc3cc(-c4ccc(Cl)cc4OC)nn3CC)cc2n1 [Example 9-302]
  minimal effective concentration: 0.1 µM

## COc1ccccc1-c1nc(C)c(C(=O)N/N=C/c2ccc(N3CCOCC3)cc2)s1 [Example 23-89]
  minimal effective concentration: 1 µM

## COc1ccc(-c2nc(-c3ccccc3C)sc2C(=O)N/N=C/c2cc(C)c(O)c(C)c2)cc1 [Example 23-162]
  minimal effective concentration: 1 µM

## Cc1cc(F)ccc1-c1cc(NC(=O)OCc2ccc3c(c2)nc2n3CCOC2)n(C)n1 [Example 9-253]
  minimal effective concentration: 0.1 µM

## COc1cc(C)ccc1-c1nc(C)c(NC(=O)OCc2ccc3c(c2)nc2n3CCSC2)s1 [Example 40-2, [2-(2-Methoxy-4-methylphenyl)-4-methylthiazol-5-yl]carbamic acid 3,4-dihydro-1H-2-thia-4a,9-diazafluoren-7-ylmethyl ester]
  minimal effective concentration: 0.025 µM

## Cc1ccccc1-c1ncc(C(=O)N/N=C/c2cc(C)c(O)c(C)c2)s1 [Example 23-124]
  minimal effective concentration: 0.1 µM

## Cc1ccc(-c2nc(C)c(NC(=O)OCc3ccc4c(c3)nc(C)n4C)s2)c(C)c1 [Example 9-78]
  minimal effective concentration: 0.025 µM

## Cc1ccccc1-c1cc(NC(=O)OCc2ccc3c(c2)ncn3C)n(C)n1 [Example 9-205]
  minimal effective concentration: 1 µM

## Cc1nc2cc(COC(=O)Nc3sc(-c4ccc(Cl)cc4C)nc3C)ccc2s1 [Example 37-4]
  minimal effective concentration: 1 µM

## COc1ccc(CN(C)NC(=O)c2cc(-c3ccc(Cl)cc3OC)ns2)cc1 [Example 19-1, 3-(4-Chloro-2-methoxyphenyl)isothiazole-5-carboxylic acid N′-(4-methoxybenzyl)-N′-methyl hydrazide]
  minimal effective concentration: 10 µM

## Cc1nc2cc(NC(=O)OCc3sc(-c4ccc(Cl)cc4C)nc3C)ccc2s1 [Example 42-2, (2-Methylbenzothiazol-5-yl)carbamic acid 2-(4-chloro-2-methylphenyl)-4-methylthiazol-5-ylmethyl ester]
  minimal effective concentration: 1 µM

## CCc1nc(-c2ccc(F)cc2OC)sc1NC(=O)OCc1ccc2c(c1)nc1n2CCCC1 [Example 9-352]
  minimal effective concentration: 0.1 µM

## Cc1cc(Cl)ccc1-c1nc(C)c(C(=O)N/N=C/c2cc(C)c(O)c(C)c2)s1 [Example 23-123]
  minimal effective concentration: 0.1 µM

## Cc1cc(Cl)ccc1-c1nc(C)c(NC(=O)OCc2ccc3nn(C)cc3c2)s1 [Example 9-150]
  minimal effective concentration: 0.025 µM

## CCCn1cnc2cc(COC(=O)Nc3sc(-c4ccccc4OC)nc3C)ccc21 [Example 9-66]
  minimal effective concentration: 1 µM

## CCn1nc(-c2ccccc2OC)cc1NC(=O)OCc1ccc2nn(C)cc2c1 [Example 9-289]
  minimal effective concentration: 1 µM

## Cc1ccccc1-c1cc(NC(=O)OCc2ccc3c(cnn3C)c2)n(C)n1 [Example 9-277]
  minimal effective concentration: 10 µM

## CCn1cnc2cc(COC(=O)Nc3cc(-c4ccc(Cl)cc4OC)nn3C)ccc21 [Example 9-223]
  minimal effective concentration: 0.00625 µM

## CCc1nc2cc(COC(=O)Nc3sc(-c4ccc(C)cc4C)nc3C)ccc2n1C [Example 9-83]
  minimal effective concentration: 0.1 µM

## COc1ccc(/C=N/NC(=O)c2sc(-c3ccccc3OC)nc2C)c(O)c1 [Example 23-86]
  minimal effective concentration: 10 µM

## CCn1nc(-c2ccc(Cl)cc2OC)cc1NC(=O)OCc1ccc2c(c1)nc1n2CCC1 [Example 9-259]
  minimal effective concentration: 0.025 µM

## CCn1cnc2cc(NC(=O)OCc3cc(-c4ccc(C)cc4C)nn3C)ccc21 [Example 13-92]
  minimal effective concentration: 0.00625 µM

## COc1ccc(/C=N/NC(=O)c2sc(-c3ccncc3)nc2C)cc1O [Example 23-40]
  minimal effective concentration: 10 µM

## COc1ccccc1-c1nc(C)c(NC(=O)OCc2ccc3c(c2)nc2n3CCCC2)s1 [Example 9-110]
  minimal effective concentration: 1 µM

## COc1cc(C)ccc1-c1cc(NC(=O)OCc2ccc3c(c2)nc2n3CCOC2)n(C)n1 [Example 9-249]
  minimal effective concentration: 0.00625 µM

## CCc1nc(-c2ccc(Cl)cc2C)sc1NC(=O)OCc1ccc2nn(CC)cc2c1 [Example 9-370]
  minimal effective concentration: 0.1 µM

## COc1cc(C)ccc1-c1nc(C)c(NC(=O)OCc2ccc3c(c2)nc2n3CC(O)C2)s1 (stereo not drawn) [Example 9-341]
  minimal effective concentration: 0.025 µM

## Cc1nc(-c2ccc(Cl)cc2)sc1C(=O)N/N=C/c1ccccc1O [Example 23-59]
  minimal effective concentration: 10 µM

## CCn1nc(-c2ccc(Cl)cc2OC)cc1COC(=O)Nc1ccc2c(c1)nc1n2CCC1 [Example 13-109]
  minimal effective concentration: 0.00625 µM

## COc1ccccc1-c1nc(C)c(COC(=O)Nc2ccc3c(c2)nc2n3CCOC2)s1 [Example 13-22]
  minimal effective concentration: 10 µM

## COc1ccc(/C=N/NC(=O)c2sc(-c3ccc(Cl)cc3)nc2C)cc1O [Example 23-7]
  minimal effective concentration: 0.1 µM

## Cc1cc(/C=N/NC(=O)c2sc(-c3ccc(Cl)cc3)nc2C)ccc1O [Example 23-11]
  minimal effective concentration: 10 µM

## CCc1nc(-c2ccc(C)cc2OC)sc1NC(=O)OCc1ccc2c(c1)nc(C)n2C [Example 9-374]
  minimal effective concentration: 0.1 µM

## COc1cc(F)ccc1-c1cc(NC(=O)OCc2ccc3nn(C)cc3c2)n(C)n1 [Example 9-290]
  minimal effective concentration: 0.1 µM

## CCn1cnc2cc(COC(=O)Nc3cc(-c4ccc(Cl)cc4Cl)nn3C)ccc21 [Example 9-209]
  minimal effective concentration: 0.025 µM

## COc1ccc(/C=N/NC(=O)c2sc(-c3ccc(Cl)cc3)nc2C)cc1B(O)O [Example 23-140]
  minimal effective concentration: 1 µM

## COc1ccc(CN(C)NC(=O)c2cc(-c3ccc(Cl)cc3OC)n[nH]2)cc1 [Example 18-1, 5-(4-Chloro-2-methoxyphenyl)-2H-pyrazole-3-carboxylic acid N′-(4-methoxybenzyl)-N′-methyl hydrazide]
  minimal effective concentration: 1 µM

## COc1cc(Cl)ccc1-c1nc(C)c(NC(=O)OCc2ccc3c(c2)nc2n3CCN(C)C2)s1 [Example 38-1, [2-(4-Chloro-2-methoxyphenyl)-4-methylthiazol-5-yl]carbamic acid 2-methyl-1,2,3,4-tetrahydrobenzo[4,5]imidazo[1,2-a]pyrazin-8-ylmethyl ester]
  minimal effective concentration: 1 µM

## COc1cc(Cl)ccc1-c1cc(COC(=O)Nc2ccc3c(c2)nc2n3CCOC2)sn1 [Example 47-9]
  minimal effective concentration: 0.00625 µM

## COc1ccc(/C=N/NC(=O)c2sc(-c3ccc(Cl)cc3OC)nc2C)cc1 [Example 23-79]
  minimal effective concentration: 0.1 µM

## COc1ccc(-c2nc(C)c(C(=O)N/N=C/c3ccc(O)c4ccccc34)s2)cc1 [Example 23-113]
  minimal effective concentration: 10 µM

## CCn1nnc2cc(COC(=O)Nc3sc(-c4ccc(F)cc4OC)nc3C)ccc21 [Example 9-23]
  minimal effective concentration: 0.025 µM

## COc1cc(Cl)ccc1-c1nc(C)c(C(=O)N/N=C/c2cc(C)c(O)c(C)c2)s1 [Example 23-84]
  minimal effective concentration: 0.1 µM

## COc1cc(F)ccc1-c1cc(COC(=O)Nc2ccc3c(c2)ncn3C)n(C)n1 [Example 13-80]
  minimal effective concentration: 0.00625 µM

## COc1ccccc1-c1nc(C)c(C(=O)N/N=C/c2ccc3ncccc3c2)s1 [Example 23-97]
  minimal effective concentration: 0.1 µM

## COc1ccccc1-c1cc(NC(=O)OCc2ccc3c(c2)nc2n3CCC2)n(C)n1 [Example 9-254]
  minimal effective concentration: 1 µM

## CCc1nc(-c2ccc(Cl)cc2OC)sc1NC(=O)OCc1ccc2nn(CC)cc2c1 [Example 9-176]
  minimal effective concentration: 0.025 µM

## COc1cc(Cl)ccc1-c1nc(C)c(NC(=O)OCc2ccc3c(c2)nc2n3CCSC2)s1 [Example 40-1, [2-(4-Chloro-2-methoxyphenyl)-4-methylthiazol-5-yl]carbamic acid 3,4-dihydro-1H-2-thia-4a,9-diazafluoren-7-ylmethyl ester]
  minimal effective concentration: 0.025 µM

## COc1ccccc1-c1nc(C)c(C(=O)N/N=C/c2ccc3c(c2)CCO3)s1 [Example 23-153]
  minimal effective concentration: 0.1 µM

## COc1ccccc1-c1nc(C)c(NC(=O)OCc2ccc3c(ccn3C)c2)s1 [Example 9-29]
  minimal effective concentration: 10 µM

## Cc1ccc(-c2nc(C)c(NC(=O)OCc3ccc4nn(C)cc4c3)s2)c(C)c1 [Example 9-147]
  minimal effective concentration: 0.025 µM

## COc1cc(Cl)ccc1-c1cc(NC(=O)OCc2ccc3cnn(C)c3c2)n(C)n1 [Example 9-297]
  minimal effective concentration: 10 µM

## CCn1nc(-c2ccc(C)cc2C)cc1COC(=O)Nc1ccc2c(c1)nc1n2CCCC1 [Example 13-123]
  minimal effective concentration: 0.025 µM

## CCn1ncc2cc(/C=N/NC(=O)c3cc(-c4ccccc4OC)ns3)ccc21 [Example 49-7, 3-(2-Methoxyphenyl)isothiazole-5-carboxylic acid[1-(1-ethyl-1H-indazol-5-yl)methylidene]hydrazide]
  minimal effective concentration: 1 µM

## CCN(Cc1ccc(OC)cc1)NC(=O)c1sc(-c2ccc(Cl)cc2OC)nc1C [Example 16-13]
  minimal effective concentration: 0.1 µM

## Cc1ccc(-c2nc(C)c(NC(=O)OCc3ccc4ncsc4c3)s2)c(C)c1 [Example 36-4]
  minimal effective concentration: 10 µM

## CCn1nc(-c2ccccc2OC)cc1COC(=O)Nc1ccc2c(c1)nc1n2CCCC1 [Example 13-115]
  minimal effective concentration: 0.1 µM

## COc1ccc(/C=N/NC(=O)c2sc(-c3ccc(Cl)cc3)nc2C)cc1OC [Example 23-42]
  minimal effective concentration: 10 µM

## CCn1nc(-c2ccc(C)cc2OC)cc1NC(=O)OCc1ccc2c(c1)ncn2CC [Example 9-229]
  minimal effective concentration: 0.025 µM

## Cc1ccc(-c2nc(C)c(NC(=O)OCc3ccc4c(c3)nc3n4CCOC3)s2)c(C)c1 [Example 9-96]
  minimal effective concentration: 0.00625 µM

## Cc1nc(-c2ccc(F)cc2Cl)sc1NC(=O)OCc1ccc2c(cnn2C)c1 [Example 9-131]
  minimal effective concentration: 0.1 µM

## COc1ccc(CN(C)NC(=O)c2sc(-c3ccc(Cl)cc3OC)nc2C)cc1O [Example 16-24]
  minimal effective concentration: 0.1 µM

## Cn1cnc2cc(NC(=O)OCc3cc(-c4ccc(Cl)cc4Cl)ns3)ccc21 [Example 47-1]
  minimal effective concentration: 0.1 µM
